Measurements: patent US20250052985A1, “SYSTEM AND METHOD FOR QUANTITATIVE PHASE IMAGING FOR MULTI-PARAMETRIC SCREENING OF TUMOR THERAPY RESPONSE” (UNIVERSITY OF UTAH RESEARCH FOUNDATION, priority 2023, published 2025)
Values joined by “and” are separate entries in the source; they are usually repeats but may differ in a detail not shown here. Identical values can stand only once.

Tests used:
[1] = tested on: primary tumor cells (Patient #1); assay: QPI on primary cells after two-week expansion, Patient #1; format: cell-based
Procedure: In some embodiments, the QPI microscope system 110 applies multiparametric QPI to primary cells from two clinical samples stored in cell bank at, for example, the Huntsman Cancer Institute plated after thawing from liquid nitrogen and CD45+ depleted to reduce the number of immune cells, as shown in FIG. 26.
For example, the primary cells are plated as a 2D monolayer in Clever's complete medium in a 96 well plate (e.g., the well-plate 105) and are allowed to acclimate to cell culture conditions for 18 h prior to dosing with treatments assigned to each patient by a physician. […] The image 3600 is a QPI image of primary cells from a direct from thaw patient derived sample. […] The graph 3610 is a histogram of cell mass used to computationally filter, using the electronic controller 155, for low mass cells (shown in red in the image 3600 and the graph 3605). By using a cutoff between the peaks at, for example, 72 pg, low mass cells can be isolated that are not growing and remove such cells from analysis. […] Using this cutoff, the electronic controller 155 measures the dose response for cells in each condition to determine the EC50 and DoR for each condition studied for the primary cells, as shown in the graph 3615. The graph 3615 is a dose response plot for primary cells treated with therapies assigned to the patient by a physician. […] In some embodiments, the electronic controller 155 determines a drug response in cells from patient derived samples. For example, the electronic controller 155 determines the drug response in therapy treatment samples from patient derived samples.
In some embodiments, both samples are expanded from primary cells in 2D culture using optimized ex vivo culture conditions for 2 weeks, changing media every 3 days to further purify the tumor cells, as shown in a workflow 3700 of FIG. 27.

MDA-MB-231 cells = assay: Quantitative phase imaging (QPI) growth response, MDA-MB-231; format: cell-based; parameters: DoR QPI: scale not given here; ToR 20 μM: unit not given here
From the text: (§1) In some embodiments, breast cancer cell lines are imaged, representing diverse clinical subtypes, summarized in Table 2 below, using a QPI microscope (FIG. 1A) based on differential phase contrast (DPC) microscopy and phase reconstruction via a QPI microscope system. DPC is used for image acquisition and phase reconstruction because DPC's flexible design may be customized for high throughput phase measurements. […] As illustrated in the embodiment of FIG. 1A, a QPI microscope system 100 conducts assays in a 96-well plate (e.g., a well-plate 105) with 6-point dose response curves and up to five therapies in triplicate including solvent controls, summarized in Table 4 below. As described below, in reference to FIG. 1A, a growth response of cells is measured noninvasively using QPI via a QPI microscope system 110 before being assayed using a CTG reader 115.
(§2) FIG. 1B illustrates a timeline plot 200 showing two plates (e.g., two, separate well-plates 105) set up in parallel to measure cell viability. With reference to FIG. 1B, two plates are set-up simultaneously for each experiment. A first plate 205 is incubated for 27 hours (h) post drug exposure prior to CTG analysis (3 h equilibration+24 h of imaging), which measures cell adenosine triphosphate (ATP) content as a surrogate for cell viability. A second plate 210 is imaged for 72 h after 3 h equilibration (e.g., 75 h) and followed by CTG. […] The imaging locations are imaged for 72 h, as shown by images 1700-1715 of FIG. 7.
(§3) In some embodiments, a dose-dependent change in growth, as indicated by a change in the rate of mass accumulation or loss, is a parameter that can be extracted from QPI dose-response data. […] Individual specific growth rate measurements are indicated by points in the distribution of the graph 1200 of FIG. 2A. Blue is indicative of the DMSO control and red is indicative of doxorubicin. The black outline is a kernel density function fit to the distribution of specific growth rates for each condition (e.g., *p<0.05, **p<0.01). In some embodiments, the average SGR of each condition is fit to a sigmoid dose-response curve using a Hill equation. For example, computed logistic fit parameters using a 4-parameter Hill model via the QPI microscope system 110 for all conditions are summarized in Tables 5-8 below. To determine if there is a response, as illustrated by FIG. 2B, the QPI microscope system 110 tests goodness of fit, adjusts for degrees of freedom using an F-test at significance p<0.01 by comparison to a flat line, as an indicator of no response. For cases with a better fit to the Hill equation, the 4-parameter Hill curve may be used by the QPI microscope system 110 to determine the EC50, a measure of sensitivity to therapy because it represents the effective concentration at which 50% of the cells respond to therapy, as illustrated by FIG. 10. […] A 4-parameter Hill curve is fit to each dose response plot to extract the depth of response and EC50 for each cell/drug pair. A flat line represents no response due to failure of the F-test to reject the null hypothesis that the logistic fit is indistinguishable from a flat line. […] Each color indicates a different drug or therapy used.

MCF-7 cells [2] = assay: cells; settings: for Max Asymptote / Min Asymptote: MCF-7, 4-parameter Hill fit of mean SGR vs concentration, one line per replicate; for Hill Slope: MCF-7, Hill fit; for DoR QPI: depth of response; for ToR 20 μM: time of response at 20 μM
From the text: as §1, §2, §3

BT-474 cells [3] = assay: cells; settings: for ToR 20 μM: time of response at 20 μM; for Hill Slope: BT-474, Hill fit; for EC50: Homo sapiens
From the text: as §1, §2, §3

MCF-7 cells [4] = assay: CellTiter-Glo (CTG) ATP viability assay, MCF-7; format: cell-based
Procedure: (§4) CTG (e.g., read by the CTG reader 115) is a cell viability assay that quantifies the amount of ATP present at the end of an experiment as an indicator of the number of live cells. The electronic controller 155 measures ATP content in each condition as a readout by a luminescent signal, which is normalized by the luminescence of the control (e.g., a control well) to determine cell viability relative to on-plate controls. In some embodiments, the CTG assay is performed by first removing 100 μL of media from each well on the well-plate 105, which is then replaced with an equal amount of CellTiter-Glo reagent (e.g., Promega, G7572). Assayed plates may be shaken at 500 RPM for 20 minutes and allowed to rest for 10 minutes. In some instances, 100 μL of volume from each well is transferred to a white 96-well plate (e.g., Perkin Elmer, 6005680). The electronic controller 155 collects luminescence data from each well using an Envision plate reader (e.g., Perkin Elmer) and normalized against the solvent control to measure ATP content. The electronic controller 155 fits a 4-parameter hill curve to the dose response to determine the EC50 and depth of response.

BT-474 cells [5] = assay: CellTiter-Glo (CTG) ATP viability assay, BT-474; format: cell-based; settings: for Min Asymptote: BT-474, Hill fit of luminescence normalized to solvent control, one line per replicate; for EC50: Homo sapiens
Procedure: as §4

[6] = 72 h QPI, MDA-MB-231, 4-parameter Hill fit of mean SGR vs concentration, one line per replicate
[7] = 72 h QPI, BT-474, 4-parameter Hill fit of mean SGR vs concentration, one line per replicate

SMILES: Nc1ccn([C@@H]2O[C@H](CO)[C@@H](O)C2(F)F)c(=O)n1 [gemcitabine]
- EC50 compared with eribulin ([1]; Patient #1): lower EC50 than eribulin

SMILES: C=C1C[C@@H]2CC[C@@]34C[C@H]5O[C@H]6[C@@H](O3)[C@H]3O[C@H](CC[C@@H]3O[C@H]6[C@H]5O4)CC(=O)C[C@@H]3[C@@H](OC)[C@@H](C[C@H](O)CN)O[C@H]3C[C@H]3O[C@@H](CC[C@@H]1O2)C[C@@H](C)C3=C [eribulin]
- overall response relative to doxorubicin or gemcitabine ([1]; Patient #1, concentration just above the EC50, normalized mass over time): lesser overall response
- DoR relative to the other therapies tested ([1]; Patient #1, dose response plots): lower DoR
- growth rate after the first day ([1]; Patient #1, rest of the experiment): approximately 0.0012 h−1

SMILES: N.N.O=C([O-])C1(C(=O)[O-])CCC1.[Pt+2] [Carboplatin]
- Max Asymptote (MDA-MB-231 cells; [6]): 0.01609 and 0.02303 and 0.02092
- Min Asymptote (MDA-MB-231 cells; [6]): 0.02861 and 0.03045 and 0.02714
- growth rate and heterogeneity over time (MDA-MB-231 cells; MDA-MB-231, 20 μM): decrease in growth rate with little effect on heterogeneity relative to the control
- growth rate and heterogeneity as concentration increases (MDA-MB-231 cells; MDA-MB-231, FIG. 22): decrease in growth rate and heterogencity simultaneously
- EC50 (MDA-MB-231 cells; MDA-MB-231 cell line, QPI growth rate, read-out: EC50, QPI): 9100 nM
- DoR QPI (MDA-MB-231 cells; MDA-MB-231 cell line, depth of response, QPI): 0.3
- ToR 20 μM (MDA-MB-231 cells; MDA-MB-231 cell line, time of response at 20 μM): 18.3
- Max Asymptote (MCF-7 cells [2]; 72 h QPI): 0.007047 and 0.01142
- Min Asymptote (MCF-7 cells [2]; 72 h QPI): 0.01994 and 0.02292
- Hill Slope (MCF-7 cells [2]; 72 h QPI): 3.7715 and 2.34
- DoR QPI (MCF-7 cells [2]; MCF-7 cell line): 0.6
- ToR 20 μM (MCF-7 cells [2]; MCF-7 cell line): 18.1
- EC50 (MCF-7 cells [2]; read-out: EC50, QPI, MCF-7 cell line, QPI growth rate): 14.2 µM
- ToR 20 μM (BT-474 cells [3]; BT-474 cell line): 38.7
- Hill Slope (MCF-7 cells [4]; 72 h CTG, MCF-7, Hill fit): 3.126 and 5.114
- log10(EC50) (MCF-7 cells [4]; 72 h CTG, MCF-7, Hill fit): −1.201 and −1.172
- Min Asymptote (MCF-7 cells [4]; 72 h CTG, MCF-7, Hill fit of luminescence normalized to solvent control, one line per replicate): 0.5048 (2×) and 0.6498
- EC50 (MCF-7 cells [4]; MCF-7 cell line, CellTiter-Glo, read-out: EC50, CTG (converted)): 15500 nM
- DoR CTG (MCF-7 cells [4]; MCF-7 cell line, depth of response, CellTiter-Glo): 0.4

SMILES: CS(=O)(=O)CCNCc1ccc(-c2ccc3ncnc(Nc4ccc(OCc5cccc(F)c5)c(Cl)c4)c3c2)o1 [Lapatinib]
- type of response (cytostatic/cytotoxic) (MCF-7 cells [2]): cytostatic response
- Max Asymptote (MCF-7 cells [2]; 24 h QPI): 0.02919
- Min Asymptote (MCF-7 cells [2]; 24 h QPI): 0.0206
- Hill Slope (MCF-7 cells [2]; 24 h QPI): 1.4871
- Max Asymptote (MCF-7 cells [2]; 72 h QPI): 0.01659
- Min Asymptote (MCF-7 cells [2]; 72 h QPI): 0.02661
- Hill Slope (MCF-7 cells [2]; 72 h QPI): 1.4826
- EC50 (MCF-7 cells [2]; Homo sapiens, MCF7, 24 h, read-out: log10(EC50), 24 h QPI, MCF-7, Hill fit (converted), EC50 in μM per Table 1): 1.92 µM
- EC50 (MCF-7 cells [2]; Homo sapiens, MCF7, 72 h, read-out: log10(EC50), 72 h QPI, MCF-7, Hill fit (converted), EC50 in μM per Table 1): 1.8 µM
- EC50 (MCF-7 cells [2]; Homo sapiens, MCF7, MCF-7, QPI): ~1.5 µM
- EC50 (MCF-7 cells [2]; Homo sapiens, MCF7, read-out: EC50, QPI, MCF-7 cell line, QPI growth rate): 1.5 µM
- DoR QPI (MCF-7 cells [2]; MCF-7 cell line): 0.4
- ToR 20 μM (MCF-7 cells [2]; MCF-7 cell line): 38.2
- type of response (cytostatic/cytotoxic) (BT-474 cells [3]): cytotoxic response
- Max Asymptote (BT-474 cells [3]; 24 h QPI, BT-474, 4-parameter Hill fit of mean SGR vs concentration, one line per replicate): 0.009114 and 0.01239 and 0.01012
- Hill Slope (BT-474 cells [3]; 24 h QPI): 1.0728 and 1.0622 and 0.7683
- Max Asymptote (BT-474 cells [3]; [7]): −0.005233 and −0.002968 and −0.002717
- Min Asymptote (BT-474 cells [3]; [7]): 0.008681 and 0.009519 and 0.009646
- Hill Slope (BT-474 cells [3]; 72 h QPI): 0.8265 and 1.1159 and 1.0735
- growth rate and heterogeneity as concentration increases (BT-474 cells [3]; BT-474, FIG. 22): decrease in growth rate and heterogeneity
- DoR QPI (BT-474 cells [3]; BT-474 cell line, depth of response, QPI): 1.4
- ToR 20 μM (BT-474 cells [3]; BT-474 cell line): −1.0616
- ToR faster than in MCF-7 (BT-474 cells [3]; BT-474 vs MCF-7): 60 h
- decrease in heterogeneity relative to MCF-7 (BT-474 cells [3]; BT-474 vs MCF-7): 30%
- EC50 (BT-474 cells [3]; BT-474, BT-474, QPI): ~1500 nM
- EC50 (BT-474 cells [3]; BT-474, read-out: EC50, QPI, BT-474 cell line, QPI growth rate): 1600 nM
- EC50 (BT-474 cells [3]; BT-474, read-out: EC50, SD, BT-474 cell line, EC50 of the standard deviation): 1650 nM
- Hill Slope (BT-474 cells [5]; 24 h CTG, BT-474, Hill fit): 0.4575
- Min Asymptote (BT-474 cells [5]; 24 h CTG): 0.2926
- Hill Slope (BT-474 cells [5]; 72 h CTG, BT-474, Hill fit): 0.6736 and 1.021
- log10(EC50) (BT-474 cells [5]; 72 h CTG, BT-474, Hill fit): 0.04318
- Min Asymptote (BT-474 cells [5]; 72 h CTG): 0.3102 and 0.4062 (2×)
- DoR CTG (BT-474 cells [5]; BT-474 cell line, depth of response, CellTiter-Glo): 0.6
- EC50 (BT-474 cells [5]; BT-474, 24 h, 24 h CTG, BT-474, Hill fit, read-out: log10(EC50) (converted)): 165000 nM
- EC50 (BT-474 cells [5]; BT-474, BT-474 cell line, CellTiter-Glo, read-out: EC50, CTG): 1700 nM
